22 molecules from patent US20220315567A1 (priority 2016, published 2022) can be followed below.

Counter-ions that a name gives are not always drawn. Like-named read-outs stand apart in the source and are kept apart here.

The target of data set [1] is T1, human OPRM1 (μ, MOR) (Homo sapiens, UniProt P35372).
T1 construct: host or cells: CHO-K1
Description: cell-based. The conditions noted are these: for Emax: OPRM1, read-out: cAMP Emax; for EC50: PathHunter human OPRM1 Arrestin CHO-K1 cell line, read-out: cAMP EC50. The procedure:
G-protein signaling was measured via second messenger cAMP modulation. Detection of cAMP modulation was accomplished in the PathHunter human OPRM1 (μ, MOR) Arrestin CHO-K1 cell line using the Dynamic2 cAMP Kit from Cisbio.

The target of data set [2] is T1, human OPRM1 (μ, MOR). Description: cell-based. The conditions noted are these: for Emax: OPRM1, read-out: β-Arrestin Emax; for EC50: PathHunter human OPRM1 Arrestin CHO-K1 cell line, read-out: β-Arrestin EC50. A digest of the protocol: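 β-Arrestin-2 recruitment was measured in PathHunter CHO-K1 cells expressing ED-tagged human OPRM1 and EA-fused arrestin. Agonist-driven recruitment restores β-galactosidase activity by enzyme fragment complementation, read by chemiluminescence.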

T1 sequence (P35372 whole entry): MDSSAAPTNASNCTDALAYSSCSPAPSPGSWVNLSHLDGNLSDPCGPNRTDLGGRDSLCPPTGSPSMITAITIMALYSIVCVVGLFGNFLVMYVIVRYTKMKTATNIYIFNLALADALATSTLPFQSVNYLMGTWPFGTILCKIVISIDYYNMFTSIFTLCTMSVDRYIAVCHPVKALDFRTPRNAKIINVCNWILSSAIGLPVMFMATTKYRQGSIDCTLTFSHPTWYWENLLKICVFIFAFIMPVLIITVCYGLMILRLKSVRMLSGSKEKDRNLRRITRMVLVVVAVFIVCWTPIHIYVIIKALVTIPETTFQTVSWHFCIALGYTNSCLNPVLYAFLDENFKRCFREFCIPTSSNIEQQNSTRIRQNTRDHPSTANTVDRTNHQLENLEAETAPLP

Consider `CN(C)C1(CNC(=O)N[C@H]2CCc3ccccc3C2)CCCC1` [Compound 65], for which the melting point – broadly, the temperature, or range, at which the solid turns liquid – lay in the range of 204 to 206 °C. Further, on human OPRM1 (μ, MOR) [1], the Emax (commonly the size of the effect at its maximum, as opposed to the concentration needed) is below 10% and the concentration for a half-maximal effect (EC50) (in general, the concentration at which the effect is half-maximal) was above 100 µM. Also, on human OPRM1 (μ, MOR) [2], the Emax was below 1% and the concentration for a half-maximal effect (EC50) is above 100 µM. On to `CN(C)C(CNC(=O)N1Cc2ccc(Cl)cc2C1)c1ccsc1` (stereo not shown) (as salt: hydrochloride) [Compound 4a, 5-Chloro-N-(2-(dimethylamino)-2-(thiophen-3-yl)ethyl)isoindoline-2-carboxamide hydrochloride], for which the melting point was 210 to 215 °C (dec.). For the molecule `CN(C)C(CNC(=O)N1Cc2ccc(F)cc2C1)c1ccc(F)cc1Cl` (stereo not shown) (as salt: hydrochloride) [Compound 17a, N-(2-(2-Chloro-4-fluorophenyl)-2-(dimethylamino)ethyl)-5-fluoroisoindoline-2-carboxamide hydrochloride], the melting point is 173 to 174 °C (dec.).

For `CN(C)C(CNC(=O)N1Cc2ccc(O)cc2C1)c1ccsc1` (stereo not shown) (as salt: hydrobromid) [Compound 22, N-(2-(Dimethylamino)-2-(thiophen-3-yl)ethyl)-5-hydroxyisoindoline-2-carboxamide hydrobromide], the melting point was 134 °C (dec.). Same read-out and setting: with `COc1ccc(C(CNC(=O)N2Cc3ccccc3C2)N(C)C)cc1` (stereo not shown) (as salt: hydrochloride) [Compound 15a, N-(2-(Dimethylamino)-2-(4-methoxyphenyl)ethyl)isoindoline-2-carboxamide hydrochloride] the figure was 149 to 151 °C (dec.).

`CN(C)C(CNC(=O)NC1CCc2ccccc2C1)c1ccsc1` (stereo not shown) (as salt: hydrochloride) [Compound 10a, 1-(2-(Dimethylamino)-2-(thiophen-3-yl)ethyl)-3-(1,2,3,4-tetrahydronaphthalen-2-yl)urea hydrochloride] had a melting point of 151 to 153 °C. With `Cc1ccc2c(c1)CN(C(=O)NCC(c1ccsc1)N(C)C)C2` (stereo not shown) (as salt: hydrochloride) [Compound 12a, N-(2-(Dimethylamino)-2-(thiophen-3-yl)ethyl)-5-methylisoindoline-2-carboxamide hydrochloride], the melting point is 200 to 202 °C (dec.). `CN(C(=O)OC(C)(C)C)C(CNC(=O)N1Cc2ccc(F)cc2C1)c1ccsc1` (stereo not shown) [Compound 34, tert-Butyl (2-(5-fluoroisoindoline-2-carboxamido)-1-(thiophen-3-yl)ethyl)(methyl)carbamate] showed a melting point of 182 to 184 °C. Besides, on human OPRM1 (μ, MOR) [1], the Emax turned out to be 2.6% and the 50% effective concentration (EC50) was above 100 µM. At human OPRM1 (μ, MOR) [2], the maximum response (Emax) was below 1% and the 50% effective concentration (EC50) was above 100 µM.

On to `CN(C)C(CNC(=O)N1Cc2ccccc2C1)c1ccsc1` (stereo not shown) (as salt: hydrochloride) [Compound 1a, N-(2-(Dimethylamino)-2-(thiophen-3-yl)ethyl)isoindoline-2-carboxamide hydrochloride], for which the melting point was 145 to 150 °C (dec.). `CN(C)C(CNC(=O)NC1CCCc2ccccc21)c1ccsc1` (stereo not shown) (as salt: hydrochloride) [Compound 11a, 1-(2-(Dimethylamino)-2-(thiophen-3-yl)ethyl)-3-(1,2,3,4-tetrahydronaphthalen-1-yl)urea hydrochloride] returned a melting point of 179 to 181 °C. As for `CN(C)C(CNC(=O)N1Cc2ccccc2C1)c1ccc(F)cc1Cl` (stereo not shown) (as salt: hydrochloride) [Compound 14a, N-(2-(2-Chloro-4-fluorophenyl)-2-(dimethylamino)ethyl)isoindoline-2-carboxamide hydrochloride], the melting point lay in the range of 147 to 149 °C. As for `COc1ccc2c(c1)CN(C(=O)NCC(c1ccsc1)N(C)C)C2` (stereo not shown) (as salt: hydrochloride) [Compound 5a, N-(2-(Dimethylamino)-2-(thiophen-3-yl)ethyl)-5-methoxyisoindoline-2-carboxamide hydrochloride], the melting point was 210 to 215 °C (dec.). With `CN(C)C(CNC(=O)N1Cc2ccc(F)cc2C1)c1ccc(O)cc1` (stereo not shown) [Compound 21, N-(2-(Dimethylamino)-2-(4-hydroxyphenyl)ethyl)-5-fluoroisoindoline-2-carboxamide], the melting point was 180 to 185 °C (dec.). Also, at human OPRM1 (μ, MOR) [1], the Emax is 4.5% and the EC50 was above 100 µM. For the same molecule, at human OPRM1 (μ, MOR) [2], the Emax was below 1% and the concentration giving a half-maximal response (EC50) is above 100 µM. Consider `CN(C)C(CNC(=O)N1Cc2cccc(F)c2C1)c1ccsc1` (stereo not shown) (as salt: hydrochloride) [Compound 3a, N-(2-(Dimethylamino)-2-(thiophen-3-yl)ethyl)-4-fluoroisoindoline-2-carboxamide hydrochloride], for which the melting point was 150 to 155 °C (dec.).

For `CN(C)C(CNC(=O)NC1CCc2ccccc2C1)c1ccccc1` (stereo not shown) (as salt: hydrochloride) [Compound 19a, 1-(2-(Dimethylamino)-2-phenylethyl)-3-(1,2,3,4-tetrahydronaphthalen-2-yl)urea hydrochloride], the melting point lay within 160 to 161 °C.

`CN(C)C(CNC(=O)N(C)C1CCCc2ccccc21)c1ccsc1` (stereo not shown) (as salt: hydrochloride) [Compound 13a, 3-(2-(Dimethylamino)-2-(thiophen-3-yl)ethyl)-1-methyl-1-(1,2,3,4-tetrahydronaphthalen-1-yl)urea hydrochloride] came in with a melting point of 188 to 190 °C. Regarding `CN(C)C(CNC(=O)N1Cc2cc(F)c(F)cc2C1)c1ccsc1` (stereo not shown) (as salt: hydrochloride) [Compound 6a, N-(2-(dimethylamino)-2-(thiophen-3-yl)ethyl)-5,6-difluoroisoindoline-2-carboxamide hydrochloride], the melting point was in the range of 210 to 212 °C.

In turn, `CN(C)C(CNC(=O)N1Cc2ccccc2C1)c1ccccc1` (stereo not shown) (as salt: hydrochloride) [Compound 18a, N-(2-(Dimethylamino)-2-phenylethyl)isoindoline-2-carboxamide hydrochloride] displayed a melting point of 107 to 108 °C. Consider `CN(C)C(CNC(=O)N1Cc2ccc(F)cc2C1)c1ccsc1` (single isomer, unassigned) (as salt: hydrochloride) [2a-ent-(+), (+)—N-(2-(Dimethylamino)-2-(thiophen-3-yl)ethyl)-5-fluoroisoindoline-2-carboxamide hydrochloride], for which the melting point was 150 to 155 °C (dec.).

`CN(C)C(CNC(=O)N1Cc2ccc(F)cc2C1)c1ccccc1` (stereo not shown) (as salt: hydrochloride) [Compound 20a, N-(2-(Dimethylamino)-2-phenylethyl)-5-fluoroisoindoline-2-carboxamide hydrochloride] showed a melting point of 148 to 150 °C. As for `CN(C)C(CNC(=O)N1Cc2ccc(O)cc2C1)c1ccc(O)cc1` (stereo not shown) (as salt: hydrobromid) [Compound 24, N-(2-(dimethylamino)-2-(4-hydroxyphenyl)ethyl)-5-hydroxyisoindoline-2-carboxamide hydrobromide], the melting point was 185 °C (dec.). For the molecule `COc1ccc(C(CNC(=O)N2Cc3ccc(F)cc3C2)N(C)C)cc1` (stereo not shown) (as salt: hydrochloride) [Compound 16a, N-(2-(Dimethylamino)-2-(4-methoxyphenyl)ethyl)-5-fluoroisoindoline-2-carboxamide hydrochloride], the melting point is 145 to 149 °C (dec.).
